Experimental data taken from publication PMC3265452 (PLoS Neglected Tropical Diseases, 2012).
Structures can show the parent of a compound that is named as a salt.

These compounds were tested against AaDOP2 (Aedes aegypti, UniProt H6D5H2) (assay: AaDOP2 antagonist screen of the LOPAC1280 library (HEK-CRELuc-Aadop2 cells, luminescence)). Conditions: not given.
Type: cell-based

Sequence of AaDOP2 (H6D5H2 1-476): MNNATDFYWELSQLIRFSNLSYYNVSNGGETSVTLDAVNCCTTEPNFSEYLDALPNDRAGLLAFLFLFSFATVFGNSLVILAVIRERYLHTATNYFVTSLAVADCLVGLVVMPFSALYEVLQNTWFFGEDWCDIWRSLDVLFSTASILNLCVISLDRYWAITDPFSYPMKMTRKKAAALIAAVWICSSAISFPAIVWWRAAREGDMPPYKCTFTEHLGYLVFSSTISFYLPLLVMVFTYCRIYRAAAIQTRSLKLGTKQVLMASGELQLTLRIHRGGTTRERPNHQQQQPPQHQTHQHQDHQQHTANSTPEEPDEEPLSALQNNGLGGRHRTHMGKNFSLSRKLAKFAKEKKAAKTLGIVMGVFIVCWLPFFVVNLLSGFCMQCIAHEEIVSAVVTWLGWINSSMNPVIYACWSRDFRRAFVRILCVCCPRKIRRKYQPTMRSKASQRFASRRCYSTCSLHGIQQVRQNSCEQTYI

Q: `NCC(O)c1ccc(O)cc1` (racemic) [Compound 894, (±)-Octopamine hydrochloride, reference compound] was tested. Which “Compound effect (percent receptor signaling in presence of test compound, relative lux units relative to the SCH23390 control)” value did it give?
A: 104

Q: How did the “% of the SCH23390 effect (percent inhibition of receptor response relative to the SCH23390 control)” value turn out when `CN1CCN(C2Cc3ccccc3Sc3ccc(Cl)cc32)CC1.O=C(O)/C=C\C(=O)O` (racemic) [Compound 913, (±)-Octoclothepin maleate] was run?
A: 97%

Q: What about the “Compound effect (percent receptor signaling in presence of test compound, relative lux units relative to the SCH23390 control)” value of the same compound?
A: 3

Q: Which “Compound effect (percent receptor signaling in presence of test compound, relative lux units relative to the SCH23390 control)” value does the source give for `CC(C)NCC(O)COc1cccc2ccccc12.Cl` (racemic) [Compound 922, (±)-Propranolol hydrochloride] here?
A: 102

Q: For `CCCCCCCCCCCCCCCC(=O)OC(CC(=O)O)C[N+](C)(C)C.[Cl-]` (racemic) [Compound 943, Palmitoyl-DL-Carnitine chloride], which “Compound effect (percent receptor signaling in presence of test compound, relative lux units relative to the SCH23390 control)” value is on record?
A: 59

Q: With `O=C(O)[C@H]1CCCN[C@H]1C(=O)O` (racemic) [Compound 985, (±)-cis-Piperidine-2,3-dicarboxylic acid] as the compound, how does the “Compound effect (percent receptor signaling in presence of test compound, relative lux units relative to the SCH23390 control)” value read?
A: 108

Q: How did the “Compound effect (percent receptor signaling in presence of test compound, relative lux units relative to the SCH23390 control)” value turn out when `CNCC(O)c1ccc(O)cc1` (racemic) [Compound 1077, (±)-Synephrine] was run?
A: 88

Q: Which “Compound effect (percent receptor signaling in presence of test compound, relative lux units relative to the SCH23390 control)” value does the source give for `CCCCCCCCCCCCCCCCCC(=O)OC(CC(=O)O)C[N+](C)(C)C.[Cl-]` (racemic) [Compound 1088, DL-Stearoylcarnitine chloride] here?
A: 101

Q: `Br.C=CCN1CCc2cc(O)c(O)cc2C(c2ccccc2)C1` (racemic) [Compound 1139, (±)-SKF 38393, N-allyl-, hydrobromide] was tested. Which “Compound effect (percent receptor signaling in presence of test compound, relative lux units relative to the SCH23390 control)” value did it give?
A: 70

Q: Which “Compound effect (percent receptor signaling in presence of test compound, relative lux units relative to the SCH23390 control)” value does the source give for `O=C1c2c(O)cc(O)cc2O[C@H](c2ccc(O)c(O)c2)[C@H]1O` (racemic) [Compound 1176, (±)-Taxifolin] here?
A: 102

Q: `O=C(O)CCCCC1CCSS1` (racemic) [Compound 1185, (±)-alpha-Lipoic Acid] was tested. Which “Compound effect (percent receptor signaling in presence of test compound, relative lux units relative to the SCH23390 control)” value did it give?
A: 111

Q: `O=C(O)CNC(=O)C(CS)Cc1ccccc1` (racemic) [Compound 1186, DL-Thiorphan] was tested. Which “Compound effect (percent receptor signaling in presence of test compound, relative lux units relative to the SCH23390 control)” value did it give?
A: 107

Same assay, conditions: 10 µM compound, 300 nM dopamine, 2 hr; hit = compound effect <20

Q: With `CCCCCCCCCC(=O)NC(CN1CCOCC1)[C@H](O)c1ccccc1.Cl` (mixture of isomers) [Compound 968, (±)-threo-1-Phenyl-2-decanoylamino-3-morpholino-1-propanol hydrochloride] as the compound, how does the “Compound effect (percent receptor signaling in presence of test compound, relative lux units relative to the SCH23390 control)” value read?
A: 85%

Q: How did the “Compound effect (percent receptor signaling in presence of test compound, relative lux units relative to the SCH23390 control)” value turn out when `CCCN(CCc1ccccc1)C1CCc2c(O)cccc2C1.Cl` (racemic) [Compound 1005, (±)-PPHT hydrochloride] was run?
A: 73%

Q: With `CCN1CCC[C@H]1CNC(=O)c1c(O)c(Cl)cc(Cl)c1OC.O=C(O)C(O)C(O)C(=O)O` (racemic) [Compound 1069, S(+)-Raclopride L-tartrate] as the compound, how does the “Compound effect (percent receptor signaling in presence of test compound, relative lux units relative to the SCH23390 control)” value read?
A: 76%

Q: For `CC(C)NCC(O)c1ccc(NS(C)(=O)=O)cc1.Cl` (racemic) [Compound 1074, (±)-Sotalol hydrochloride], which “Compound effect (percent receptor signaling in presence of test compound, relative lux units relative to the SCH23390 control)” value is on record?
A: 125%

Q: Which “Compound effect (percent receptor signaling in presence of test compound, relative lux units relative to the SCH23390 control)” value does the source give for `CCN1CCCC1CNC(=O)c1cc(S(N)(=O)=O)ccc1OC` (racemic) [Compound 1113, (±)-Sulpiride] here?
A: 114%

Q: Which “Compound effect (percent receptor signaling in presence of test compound, relative lux units relative to the SCH23390 control)” value does the source give for `Br.Oc1cc2c(c(Cl)c1O)CCNCC2c1ccccc1` (racemic) [Compound 1133, (±)-6-Chloro-PB hydrobromide] here?
A: 99%

Q: For `O=C1CCC(N2C(=O)c3ccccc3C2=O)C(=O)N1` (racemic) [Compound 1227, (±)-Thalidomide], which “Compound effect (percent receptor signaling in presence of test compound, relative lux units relative to the SCH23390 control)” value is on record?
A: 107%
